These are literature values, as cited in patent US20080138383A1, “COMPOSITIONS AND METHODS FOR TREATING SEIZURES” (priority 2006, published 2008).

The conditions of data set [1]: in vivo.

Like-named read-outs stand apart in the source and are kept apart here.

As to `O=C1CN=C(c2ccccc2)c2cc(Cl)ccc2N1` [desmethyldiazepam], for the setting “main active metabolite versus diazepam”, the “activity relative to the parent drug” value is recorded as “somewhat less active than the parent drug”.

Turning to `O=C1Nc2ccc(Cl)cc2C(c2ccccc2Cl)=NC1O` (centres unmarked) [lorazepam], the onset of action result is, setting by setting: (after intramuscular administration) “up to 1 hour”; (after intravenous administration) “several minutes”. Also, the “dose equivalent to 5 mg of diazepam” value (estimates) is given as “approximately 0.5 mg”.

Turning to `Cc1ncc2n1-c1ccc(Cl)cc1C(c1ccccc1F)=NC2` [midazolam], the elimination half-life in data set [1] is 1.5 to 3.5 h.
